In brackets after ≈: the same amount, converted by molar mass. Read-outs that look alike come from different tables or passages of the source. No end group written: not given here.
Assays:
[1] = system: Candida albicans ATCC 10231; assay: Antimicrobial assay I, modified protocol (tryptic soy broth), MFC; conditions: minimum fungicidal concentration, Table 4
[2] = system: Escherichia coli ATCC 25922; assay: Antimicrobial assay I, modified protocol (tryptic soy broth), MBC; conditions: minimum bactericidal concentration, Table 4
in vitro [3] = conditions: human, WI38 normal lung fibroblast cells
[4] = system: Stapholococcus aureus ATCC 25923; assay: Antimicrobial assay I, modified protocol (tryptic soy broth), MBC; conditions: minimum bactericidal concentration, Table 4
in vitro [5] = format: cell-based, human; conditions: human, human red blood cells
[6] = system: Pseudomonas aeruginosa ATCC 27853; assay: Antimicrobial assay I, modified protocol (tryptic soy broth), MBC; conditions: minimum bactericidal concentration, Table 4
Description: The preparation of all media, stock solutions, and dilutions took place in a laminar flow hood to prevent contamination. Bacterial cells were freshly grown on antibiotic medium 2 agar slants (pH 7.0 at 25° C.). Bacteria were suspended and diluted in antibiotic medium 3 to about 10^4 cfu/ml and used as the inoculum. Sample solutions (100 μl/well) were added to plates according to the plate layout. Inoculum (100 μl/well) was added to achieve a final concentration of 5×10^3 cfu/ml. Negative controls received 100 μl saline and 100 μl growth medium. Positive controls received 100 μl saline and 100 μl inoculum. Bacterial plates were incubated at 37° C. for 24 hours.
However, the data for Table 4 were obtained with a modified protocol wherein the medium was tryptic soy broth, inocolum strength was approximately 10^4 CFU per ml, and values determined were minimum bactericidal concentrations (MBC) or minimum fungicidal concentrations (MFC).
MBC or MFC values are in μg/mL. E. coli is Escherichia coli ATCC accession number 25922; P. aerug is Pseudomonas aeruginosa ATCC accession number 27853, S. aur. is Stapholococcus aureus ATCC accession number 25923; Candida is Candida albicans ATCC accession number 10231.

[7] = system: human leukocyte (WBC) cells; assay: Stimulation and proliferation of leukocytes, Alamar Blue; format: cell-based; conditions: compared to untreated positive control cells; Alamar Blue
Description: In vitro viability of human leukocyte cells in the presence of different peptides at different concentrations was determined by an Alamar Blue protocol. Alamar Blue (Promega, Madison, Wis.) is an indicator dye, formulated to measure quantitatively the proliferation and cytotoxicity of the cells. The dye consists of an oxidation-reduction (redox) indicator that yields a calorimetric change and a fluorescent signal in response to cellular metabolic activity.
Assay protocol: Blood from a human was drawn and centrifuged at 1500 rpm for 15 minutes at room temperature. The buffy coat cells at the plasma-red blood cell interface were aspirated. Buffy coat cells (mainly lymphocyte cells) were then transferred into 15 ml centrifuge tubes containing 5 ml of RPMI-1640 medium+10% Fetal Bovine Serum (Gibco, Grand Island, N.Y.). Additional medium was added to the tubes to bring the volume up to 10 ml. The buffy coat suspension was then carefully layered on 5 ml of Histopaque (Sigma Chemical Co., St. Louis, Mo.) and centrifuged at 1500 rpm for 30 minutes at room temperature. The interface which is mostly PBMCs (peripheral mononuclear cells) was aspirated and transferred to a 15 ml conical centrifuge tube and, resuspended in 2 ml cold RPMI-1640 and brought up to 15 ml with cold RPMI-1640 medium. Cells were centrifuged at 1500 rpm for 10 minutes. The supernatant was then aspirated and discarded. The cell pellet was re-suspended in 1 ml of cold RPMI 1640 and brought up to 15 ml with RPMI medium. This step was repeated twice, except that in the last step, the cells were resuspended with 1 ml of cold RPMI-1640 medium and cell counts were performed with a hemocytometer according to the Sigma cell culture catalogue.
Pokewood mitogen was used as a control along with positive and negative controls. Negative control cells were killed with 70% methanol. Positive (+) control cells were incubated in RPMI medium (untreated). […] of AlamarBlue was added to the cells, and readings were taken after 24 hours, 48 hours, 72 hours, and 96 hours using a fluorimeter (excitation 544/transmission 590 nm).
Calculations were performed using the following formula. The peptide treated sample and positive control were adjusted for negative control. [formula]
Using the protocol described immediately above, about 100-150 peptides were screened for their stimulatory and/or inhibitory actions upon the growth of human leukocyte (“WBC”) cells as compared to the growth of untreated positive control cells.
The Alamar Blue stain used in the protocol permeates both cell and nuclear membranes, and is metabolized in the mitochondria to cause the change in color. The resulting fluorometric response is therefore a result of total mitochondrial activity caused by cell stimulation and/or mitosis (cell proliferation).

SW480 = assay: Anti-cancer assay, MTT, LD50; format: cell-based; conditions: SW480 colon adenocarcinoma line, 24 hours with peptide
Description: (§1) Numbers are LD50 values (μg/mL).

MCF7 = assay: Anti-cancer assay, MTT, LD50; format: cell-based; conditions: MCF7 breast adenocarcinoma line, MTT, 24 hours with peptide
Description: as §1

BMKC = assay: Anti-cancer assay, MTT, LD50; format: cell-based; conditions: BMKC cloned melanoma line, 24 hours with peptide
Description: as §1

S. typhimurium 14028S = format: cell-based, Salmonella typhimurium; conditions: mean of three; 16 to 20 hours at 35° C.; in µg/mL
E. coli UB1005 = format: cell-based, Escherichia coli; conditions: mean of three; 16 to 20 hours at 35° C.; in µg/mL
P. aeruginosa H374 = format: cell-based, Pseudomonas aeruginosa; conditions: mean of three; 16 to 20 hours at 35° C.
WI38 = conditions: Table 27
[8] = system: Pseudomonas aeruginosa ATCC 9027; assay: Antimicrobial assay I, MIC by OD measurement; format: cell-based
Description: The data for the following antimicrobial assay of the peptides have been obtained by making OD measurements in in vitro cell culture experiments with and without added peptide. The protocol used is as follows.
Cell lines included Staphylococcus aureus ATCC 6538 or 25923, Pseudomonas aeruginosa ATCC 9027 or 27853. Medium used were Antibiotic Medium 3 (Difco), Antibiotic Medium 2 (Difco), and 0.85% saline. Controls used were physiological saline, and gentamycin at 50, 25, 10, 5, 1, and 0.1 ppm.
Absorbance was read at 620 nm after shaking to resuspend cells.
Staph6538 is Staphylococcus aureus ATCC accession number 6538; paerug9027 is Pseudomonas aeruginosa ATCC accession number 9027, yeast is Saccharomyces cerevisiae.

[9] = WI-38 LD50, Table 26, valine substitution
[10] = pH 7, Table 26, valine substitution, read-out: Hemolysis RBC LD50
[11] = pH 7, hemolytic assay, concentration at 50% hemolysis, 1 hour at 37° C., read-out: LD50

Row | Molecule | MFC Candida A.10231 [1] | MBC E. coli A.25922 [2] | MBC S. aur A.25923 [4] | MBC P. aerug A.27853 [6] | further results
1 | FALALKALKKLLKKLKKLAKKAL-NH2 [compound 24] | >50 mg/L | >80 mg/L | >40 mg/L | 30 mg/L | CC50 at 24 h (in vitro [3]; [9]): 55 mg/L; HC50 at 1 h (in vitro [5]; [10]): 10 µg/mL
2 | FALALKALKKLAKKLKKLAKKAL-NH2 [compound 25] | >50 mg/L | 40 mg/L | 40 mg/L | 30 mg/L | CC50 at 24 h (in vitro [3]; [9]): 24 mg/L; HC50 at 1 h (in vitro [5]; [10]): 16 µg/mL
3 | VALALKALKKLAKKLKKLAKKAL-NH2 [P509] | – | – | – | – | HC50 at 1 h (in vitro [5]; [11]): 40 µg/mL; stimulatory and/or inhibitory action on growth of human leukocyte (WBC) cells [7]: stimulatory (and/or proliferative) at all concentrations through 500 μg/ml
4 | FAKKLAKKLKKLAKLALAL-OH [P29] | – | – | – | – | LD50 SW480 (SW480): 210 µg/mL; LD50 MCF7 (MCF7): 140 µg/mL; LD50 BMKC (BMKC): 300 µg/mL; CC50 at 24 h (in vitro [3]; LD50 WI38, WI38 normal lung fibroblast line, MTT, 24 hours with peptide): 520 mg/L; S. typhimurium 14028S MIC (S. typhimurium 14028S): 8; HC50 at 1 h (in vitro [5]; [11]): 250 µg/mL; E. coli UB1005 MIC (E. coli UB1005): 8; P. aeruginosa H374 MIC (P. aeruginosa H374): 16 mg/L
5 | VALALKALKKALKKLKKALKKAL-NH2 [compound 30] | >50 mg/L | 10 mg/L | 40 mg/L | 15 mg/L | CC50 at 24 h (in vitro [3]; [9]): 93 mg/L; HC50 at 1 h (in vitro [5]; [10]): 150 µg/mL
6 | CC(C)C[C@H](NC(=O)[C@H](CCCCN)NC(=O)[C@H](Cc1c[nH]c2ccccc12)NC(=O)[C@H](CCCCN)NC(=O)[C@H](CCCCN)NC(=O)[C@H](C)NC(=O)[C@H](CC(C)C)NC(=O)[C@H](CCCCN)NC(=O)[C@H](CCCCN)NC(=O)[C@H](C)NC(=O)[C@H](CC(C)C)NC(=O)[C@H](CCCCN)NC(=O)[C@H](CCCCN)NC(=O)[C@H](CC(C)C)NC(=O)[C@H](CCCCN)NC(=O)[C@H](CCCCN)NC(=O)[C@H](C)NC(=O)[C@H](CC(C)C)NC(=O)[C@H](CCCCN)NC(=O)[C@H](CCCCN)NC(=O)[C@H](C)NC(=O)[C@@H](N)Cc1ccccc1)C(=O)O [compound 72] | >50 mg/L | >50 mg/L | >50 mg/L | 40 mg/L (≈ 15.3 µM) | –
7 | FAKLLAKLAKKFAL-NH2 [compound 120] | INACT | INACT | INACT | INACT | –
8 | CC(C)C[C@H](NC(=O)[C@H](C)NC(=O)[C@H](CCCCN)NC(=O)[C@H](C)NC(=O)[C@H](CC(C)C)NC(=O)[C@H](CCCCN)NC(=O)[C@H](C)NC(=O)[C@H](CC(C)C)NC(=O)[C@H](CCCCN)NC(=O)[C@H](C)NC(=O)[C@H](CC(C)C)NC(=O)[C@H](CCCCN)NC(=O)[C@H](CCCCN)NC(=O)[C@H](C)NC(=O)[C@H](CC(C)C)NC(=O)[C@@H](N)CCCCN)C(=O)O [compound 160] | >250 mg/L | >250 mg/L | >250 mg/L | >250 mg/L | –
9 | CC(C)C[C@H](NC(=O)[C@H](CCCCN)NC(=O)[C@H](CCCCN)NC(=O)[C@H](Cc1c[nH]c2ccccc12)NC(=O)[C@@H](N)CCCCN)C(N)=O [compound 173] | 150 mg/L (≈ 214 µM) | >250 mg/L | >250 mg/L | >250 mg/L | –
10 | FAKLWAKLAKKL-NH2 [compound 136] | INACT | INACT | INACT | INACT | –
11 | CC[C@H](C)[C@H](NC(=O)[C@H](C)NC(=O)[C@H](CCCNC(=N)N)NC(=O)[C@H](CC(C)C)NC(=O)CNC(=O)[C@@H](NC(=O)[C@H](C)NC(=O)[C@@H](N)Cc1ccccc1)C(C)C)C(=O)N[C@@H](CCCCN)C(=O)N[C@@H](CCCNC(=N)N)C(=O)N[C@@H](C)C(=O)N[C@@H](CC(C)C)C(=O)N[C@@H](CCCCN)C(=O)N[C@@H](CCCCN)C(=O)N[C@@H](CC(C)C)C(=O)N[C@@H](CCCNC(=N)N)C(=O)N[C@@H](CCCNC(=N)N)C(=O)NCC(=O)N[C@H](C(=O)N[C@@H](CCCNC(=N)N)C(=O)N[C@@H](CCCCN)C(=O)N[C@H](C(=O)N[C@@H](C)C(=O)N[C@@H](CCCCN)C(=O)N[C@@H](CC(=O)O)C(=O)N[C@@H](CC(C)C)C(N)=O)C(C)C)C(C)C [compound 157] | >250 mg/L | 75 mg/L (≈ 25.3 µM) | >250 mg/L | >250 mg/L | –
12 | CC(C)C[C@H](NC(=O)[C@H](C)NC(=O)[C@H](CC(C)C)NC(=O)[C@H](CCCCN)NC(=O)[C@H](C)NC(=O)[C@H](CC(C)C)NC(=O)[C@H](CCCCN)NC(=O)[C@H](CCCCN)NC(=O)[C@H](C)NC(=O)[C@H](CC(C)C)NC(=O)[C@H](CCCCN)NC(=O)[C@H](C)NC(=O)[C@H](CC(C)C)NC(=O)[C@H](CCCCN)NC(=O)[C@H](CCCCN)NC(=O)[C@H](C)NC(=O)[C@@H](N)Cc1ccccc1)C(N)=O [compound 35] | >40 mg/L | 8 mg/L (≈ 4.31 µM) | 10 mg/L (≈ 5.39 µM) | 8 mg/L (≈ 4.31 µM) | WI38 LD50 (WI38): 25 µg/mL; CC50 at 24 h (in vitro [3]; [9]): 25 mg/L (≈ 13.5 µM); P. aerug (MIC) [8]: 200 mg/L; HC50 at 1 h (in vitro [5]; [10]): 150 µg/mL; HC50 at 1 h (in vitro [5]; pH 7, Table 27, read-out: Hemolysis (LD50)): 100 µg/mL
13 | CC(C)C[C@H](NC(=O)[C@H](CC(C)C)NC(=O)[C@H](CCCCN)NC(=O)[C@H](CCCCN)NC(=O)[C@H](C)NC(=O)[C@H](CC(C)C)NC(=O)[C@H](CCCCN)NC(=O)[C@H](C)NC(=O)[C@@H](N)Cc1ccccc1)C(N)=O [compound 60] | >50 mg/L | >50 mg/L | >50 mg/L | >50 mg/L | –
14 | KAKLF-NH2 [compound 130] | INACT | INACT | INACT | INACT | –
15 | FAKLLAKLAKKIL-NH2 [compound 125] | 40 mg/L | 40 mg/L | INACT | 40 mg/L | –
16 | CC(C)C[C@H](NC(=O)[C@H](C)NC(=O)[C@H](CCCCN)NC(=O)[C@H](CCCCN)NC(=O)[C@H](CC(C)C)NC(=O)[C@H](C)NC(=O)[C@H](CCCCN)NC(=O)[C@H](CC(C)C)NC(=O)[C@H](CC(C)C)NC(=O)[C@H](C)NC(=O)[C@@H](N)Cc1ccccc1)C(N)=O [compound 171] | 50 mg/L (≈ 41.2 µM) | 75 mg/L (≈ 61.7 µM) | >250 mg/L | 100 mg/L (≈ 82.3 µM) | –

Source: patent US20050209157A1, “Short bioactive peptides and methods for their use” (priority 2001, published 2005)
